According to the supplement of paper PMC10307832:

Key:
Assay in all cases: relative viability (nuclei count vs DMSO), 5 days (fraction); higher = more cells survive
XMD14-99 + OSI-027 = compound: CN1CCN(CC1)C2=CC(=C(C=C2)NC3=NC(=C(S3)C(=O)C4=C(C=CC=C4Cl)Cl)N)OC [XMD14-99] + COc1cccc2cc(-c3nc([C@H]4CC[C@H](C(=O)O)CC4)n4ncnc(N)c34)[nH]c12 [OSI-027] (partner 0.5 µM)
Method in brief: (§1)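 The day after seeding in 1536-well plates, lung cancer cell lines were treated by pin tool with a single drug, or with a fixed anchor-drug dose together with five library-drug doses (not always all listed) in √10 steps. After 5 days, a combined fix-and-stain solution (final 0.05% Triton X-100, 1% formaldehyde, 1 ug/ml Hoechst) was added. Nuclei counted on 4× images gave relative viability as treated counts over vehicle counts, reported as the median of duplicate plates.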

AZD1208 + Luminespib = compound: N[C@@H]1CCCN(c2c(/C=C3\SC(=O)NC3=O)cccc2-c2ccccc2)C1 [AZD1208] + CCNC(=O)c1noc(-c2cc(C(C)C)c(O)cc2O)c1-c1ccc(CN2CCOCC2)cc1 [Luminespib] (partner 0.01 µM)
Method in brief: as §1

AZD1208 + Lapatinib = compound: N[C@@H]1CCCN(c2c(/C=C3\SC(=O)NC3=O)cccc2-c2ccccc2)C1 [AZD1208] + CS(=O)(=O)CCNCc1ccc(-c2ccc3ncnc(Nc4ccc(OCc5cccc(F)c5)c(Cl)c4)c3c2)o1 [Lapatinib] (partner 2 µM)
Method in brief: as §1

AZD1208 + AZD7762 = compound: N[C@@H]1CCCN(c2c(/C=C3\SC(=O)NC3=O)cccc2-c2ccccc2)C1 [AZD1208] + NC(=O)Nc1cc(-c2cccc(F)c2)sc1C(=O)N[C@H]1CCCNC1 [AZD7762] (partner 0.2 µM)
Method in brief: as §1

Cell Line	relative viability (XMD14-99 + OSI-027; first compound 0.08 µM)	relative viability (XMD14-99 + OSI-027; first compound 0.8 µM)	relative viability (XMD14-99 + OSI-027; first compound 2.53 µM)	relative viability (XMD14-99 + OSI-027; first compound 8 µM)	relative viability (AZD1208 + Luminespib; first compound 0.08 µM)	relative viability (AZD1208 + Luminespib; first compound 0.253 µM)	relative viability (AZD1208 + Luminespib; first compound 0.8 µM)	relative viability (AZD1208 + Luminespib; first compound 2.53 µM)	relative viability (AZD1208 + Luminespib; first compound 8 µM)	relative viability (AZD1208 + Lapatinib; first compound 0.08 µM)	relative viability (AZD1208 + Lapatinib; first compound 0.253 µM)	relative viability (AZD1208 + Lapatinib; first compound 0.8 µM)	relative viability (AZD1208 + Lapatinib; first compound 2.53 µM)	relative viability (AZD1208 + Lapatinib; first compound 8 µM)	relative viability (AZD1208 + AZD7762; first compound 0.08 µM)	relative viability (AZD1208 + AZD7762; first compound 0.253 µM)	relative viability (AZD1208 + AZD7762; first compound 0.8 µM)	relative viability (AZD1208 + AZD7762; first compound 2.53 µM)	relative viability (AZD1208 + AZD7762; first compound 8 µM)
HCC-827	0.726	0.68	0.655	0.608	0.735	0.677	0.307	0.373	0.408	0.15	0.192	0.189	0.173	0.226	0.205	0.259	0.237	0.239	0.197
HOP-62	0.873	0.877	0.772	0.662	0.918	1.07	0.904	0.916	0.956	1.14	1.05	0.985	0.875	0.889	0.859	0.794	0.612	0.66	0.824
IA-LM	–	–	–	–	–	–	–	–	–	0.766	0.948	0.766	0.621	0.633	–	–	–	–	–
LC-2-ad	0.845	0.866	0.771	0.679	0.943	0.984	0.968	0.962	1.02	0.961	1.01	1.04	0.94	1.03	0.842	0.888	0.798	0.804	0.897
LCLC-97TM1	0.412	0.452	0.555	0.442	0.829	0.754	0.604	0.632	0.727	1.03	0.92	–	0.882	0.546	0.283	0.591	0.334	0.386	0.306
LCLC-103H	0.409	0.417	0.465	0.406	1.01	1.01	0.995	0.859	0.944	–	–	–	–	–	0.843	0.84	0.774	0.74	0.689
NCI-H441	0.61	0.568	0.665	0.427	0.393	0.331	0.26	0.342	0.265	–	–	–	–	–	1.12	1.16	0.936	1.21	1.16
NCI-H520	0.251	0.262	0.231	0.206	0.253	0.246	0.212	0.201	0.207	0.805	1.07	0.806	0.83	0.629	–	–	–	–	–
NCI-H522	0.742	0.742	0.683	0.72	1.03	1.15	0.841	0.935	0.973	–	–	–	–	–	0.773	0.892	0.756	0.747	0.584
NCI-H661	0.777	0.673	0.498	0.416	0.977	1.02	0.955	0.939	0.998	0.397	0.425	0.396	0.383	0.46	–	–	–	–	–
NCI-H1299	–	–	–	–	–	–	–	–	–	0.984	0.938	0.96	1	0.945	–	–	–	–	–
NCI-H1563	0.753	0.766	0.733	0.641	0.556	0.532	0.561	0.478	0.504	0.918	1	1.02	1.01	0.915	–	–	–	–	–
